Measurements published in the NIST ThermoML archive (doi:10.1021/je700645p).

What was measured:
[1] = xn = mol fraction of the nth substance listed; settings: 81.5 kPa, Liquid
[2] = 81.5 kPa, Liquid
[3] = refractive index (Na D-line) (dimensionless); settings: 298.15 K; 81.5 kPa; Liquid; Standard Abbe refractometry

C[S+](C)[O-] [dimethyl sulfoxide] + CC#N
mass density [kg/m3], [1]
Settings | 293.15 K | 303.15 K | 313.15 K | 323.15 K | 333.15 K
x2 = 0 | 1100.41 | 1090.37 | 1080.34 | 1070.3 | 1060.27
x2 = 0.0563 | 1087.32 | 1077.27 | 1067.22 | 1057.17 | 1047.11
x2 = 0.1195 | 1072.32 | 1062.27 | 1052.21 | 1042.11 | 1032.03
x2 = 0.1751 | 1058.54 | 1048.48 | 1038.38 | 1028.38 | 1018.15
x2 = 0.2996 | 1025.83 | 1015.69 | 1005.54 | 995.35 | 985.14
x2 = 0.3723 | 1005.56 | 995.38 | 985.18 | 974.94 | 964.64
x2 = 0.4529 | 981.91 | 971.68 | 961.4 | 951.09 | 940.71
x2 = 0.5273 | 959 | 948.69 | 938.36 | 927.96 | 917.5
x2 = 0.579 | 942.39 | 932.08 | 921.68 | 911.22 | 900.68
x2 = 0.6896 | 904.94 | 894.48 | 883.96 | 873.36 | 862.66
x2 = 0.7579 | 880.41 | 869.88 | 859.27 | 848.57 | 837.77
x2 = 0.8337 | 851.62 | 841 | 830.29 | 819.48 | 808.55
x2 = 0.933 | 811.3 | 800.6 | 789.76 | 778.79 | 767.68

CC#N [acetonitrile] + O
mass density [kg/m3], [1]
Settings | 293.15 K | 303.15 K | 313.15 K | 323.15 K | 333.15 K
x2 = 0 | 781.97 | 771.15 | 760.2 | 749.12 | 737.87
x2 = 0.0417 | 785.6 | 774.79 | 763.85 | 752.77 | 741.52
x2 = 0.0833 | 789.62 | 778.83 | 767.91 | 756.84 | 745.6
x2 = 0.1568 | 797.67 | 786.95 | 776.09 | 765.06 | 753.85
x2 = 0.2095 | 804.01 | 793.33 | 782.6 | 771.62 | 760.47
x2 = 0.3247 | 819.96 | 809.63 | 799.11 | 788.38 | 777.43
x2 = 0.4127 | 834.27 | 824.27 | 814.05 | 803.6 | 792.91
x2 = 0.496 | 849.71 | 840.11 | 830.25 | 820.14 | 809.77
x2 = 0.5704 | 864.78 | 855.57 | 846.08 | 836.32 | 826.29
x2 = 0.6361 | 880.12 | 871.32 | 862.22 | 852.82 | 843.13
x2 = 0.7201 | 902.94 | 894.74 | 886.22 | 877.38 | 868.22
x2 = 0.7961 | 926.99 | 919.47 | 911.61 | 903.39 | 894.84
x2 = 0.8788 | 956.73 | 950.35 | 943.52 | 936.28 | 928.67
x2 = 0.9573 | 984.72 | 980.43 | 975.45 | 969.87 | 963.64

CC#N [acetonitrile]
[2]
Settings | mass density [kg/m3]
293.15 K | 781.97
303.15 K | 771.15
313.15 K | 760.2
323.15 K | 749.12
333.15 K | 737.87

Settings | refractive index
[3] | 1.3417

O [water] + C[S+](C)[O-]
[1], x1 = 1
Settings | mass density [kg/m3]
323.15 K | 988.03
333.15 K | 983.19
